Patent publication US6818639B2, “Pharmaceutical combination formulation and method of treatment with the combination” (Biovitrum AB, priority 2000, dated 2004)
Read-outs that look alike come from different tables or passages of the source.

Tests used:
ob/ob mice = test: Food intake test in ob/ob mice; type: in vivo
Procedure: 5-HT2C receptor agonists (2R)-methyl-1-{3-[2-(3-pyridinyloxy)ethoxy]-2-pyrazinyl}piperazine, fumarate (“PNU-183933F”) and (2R)-1-(3-{2-[(2-ethoxy-3-pyridinyl)oxy]ethoxy}-2-pyrazinyl)-2-methylpiperazine, fumarate (“BVT.2938F”) were dissolved in saline (0.9% NaCl) and diluted in the same vehicle to the appropriate concentration.
5-HT6 receptor antagonists 6-methyl-9-(phenylsulfonyl)-1,2,3,4,5,6-hexahydroazepino[4,5-b]indole, hydrochloride (“PNU-186053A”) and 1-(phenylsulfonyl)-4-(1-piperazinyl)-1H-indole, hydrochloride (5-HT6 receptor antagonist (“BVT.5182C”) were dissolved and diluted in 25% cyclodextrin.
Male mice 8-9 weeks old (C57BL/6JBom-Lep^ob (ob/ob), Bomholtsgaard, Denmark) with an average body weight of 45 g were used. The animals were housed singly in cages at 23±1° C., 40-60% humidity and had free access to water and standard laboratory chow. The 12/12 h light/dark cycle was set to lights off at 5 p.m. The animals were conditioned for at least one week before start of study. During experimental sessions, the animals obtained special chow (BioServ, Frenchtown, N.J., USA dust-free precision pellets weighing 20 mg each).
At the start of the study the animals were transferred to special cages “operant test cages” (Habitest Modular Animal Behavior Test System; Colbourn Instr, Allentown, Pa., USA). These cages consist of a feeder trough with sensors for measurement of food intake, an optic lickometer for registration of water intake and an infrared-based monitor for recording overall general motor activity. The monitors are coupled to a computer, which controls and monitor events continuously. Food pellets were weighed to the amount needed for one whole study and water bottles were filled with fresh tap water and weighed. The animals were conditioned to their new environment for three days to establish baseline values. The animals were weighed at 3 p.m. at the start and at the end of the study. The compounds were administered between 4.20 and 5.00 p.m. before dark onset. Three groups of animals received (i) 5-HT6 antagonist in 25% cyclodextrin; (ii) 5-HT2C agonist in saline; and (iii) the combination 5-HT2C agonist/5-HT6 antagonist, respectively. When combined, 5-HT6 antagonist or saline was administered 30 min before administration of the 5-HT2C agonist or 25% cyclodextrin. A fourth group received respectively vehicle administered in the same way. The study ended on the fifth day. Weighing was performed with a computer-assisted Mettler-Toledo PR5002/PR802 balance.
Each dose group consisted of 12-16 animals. […] The values were expressed as % of basal food intake (mean±SEM) for the difference between food intake before treatment and 3 h (5 pm-8 pm), 6 h (5 pm-11 pm), 12 h (5 pm-5 am), 21 h (5 pm-2 pm).

humans = conditions: cited from earlier work
[1] = system: mice that express the normal 5-HT2C receptor / mutated inactive form; conditions: cited from earlier work
[2] = combination BVT.2938F 5 mg/kg subcutaneously + BVT.5182C 3 mg/kg subcutaneously, at 12 and 21 hours following administration, FIG. 2
[3] = combination PNU-186053A 50 mg/kg subcutaneously + PNU-183933F 50 mg/kg per orally, FIG. 1

| Compound | food consumption (food intake), combined treatment vs compounds given alone (ob/ob mice; [2]) | food consumption (food intake), combined treatment vs compounds given alone (ob/ob mice; [3]) | other results |
| --- | --- | --- | --- |
| CCOc1ncccc1OCCOc1nccnc1N1CCNC[C@H]1C.O=C(O)/C=C/C(=O)O [BVT.2938F, (2R)-1-(3-{2-[(2-ethoxy-3-pyridinyl)oxy]ethoxy}-2-pyrazinyl)-2-methylpiperazine, fumarate] | significantly more than the compounds given alone | – | – |
| Cl.Cn1c2c(c3cc(S(=O)(=O)c4ccccc4)ccc31)CCNCC2 [PNU-186053A, 6-methyl-9-(phenylsulfonyl)-1,2,3,4,5,6-hexahydroazepino[4,5-b]indole, hydrochloride] | – | decreased food consumption significantly more than the compounds given alone | – |
| Cn1c2c(c3ccccc31)CCNCC2 [U-22394A] | – | – | body weight (humans; nine weeks of treatment): reduce body weight |
| Clc1cccc(N2CCNCC2)c1 [m-CPP, m-chlorophenylpiperazine] | – | – | body weight (humans; two weeks of treatment): reduce body weight; food intake ([1]; mice expressing the mutated inactive form of the 5-HT2C receptor): lacks activity; food intake ([1]; mice that express the normal 5-HT2C receptor): reduces food intake |
| C[C@@H]1CNCCN1c1nccnc1OCCOc1cccnc1.O=C(O)/C=C/C(=O)O [PNU-183933F, (2R)-methyl-1-{3-[2-(3-pyridinyloxy)ethoxy]-2-pyrazinyl}piperazine, fumarate] | – | decreased food consumption significantly more than the compounds given alone | – |
| Cl.O=S(=O)(c1ccccc1)n1ccc2c(N3CCNCC3)cccc21 [BVT.5182C, 1-(phenylsulfonyl)-4-(1-piperazinyl)-1H-indole, hydrochloride] | significantly more than the compounds given alone | – | – |
